Assay results taken from ChEMBL document CHEMBL2429847, “Inhibitors of PI3Kβ as Potential Treatment for Cancer” (ACS Med Chem Lett, 2013).

Columns and labels:
[1] = tested on: MDA-MB-468; test: Antiproliferative activity against PTEN-deficient human MDA-MB-468 cells after 6 days by Alamar blue assay; assay type: functional, cell-based; settings: MDA-MB-468, 144 h
[2] = molecular target: Phosphatidylinositol 4,5-bisphosphate 3-kinase catalytic subunit beta isoform (Homo sapiens, UniProt P42338); test: Inhibition of PI3Kbeta-mediated AKT phosphorylation at Ser473 in PTEN-deficient human MDA-MB-468 cells after 30 mins; assay type: cell-based
Phosphatidylinositol 4,5-bisphosphate 3-kinase catalytic subunit beta isoform, sequence (P42338 whole entry, canonical isoform): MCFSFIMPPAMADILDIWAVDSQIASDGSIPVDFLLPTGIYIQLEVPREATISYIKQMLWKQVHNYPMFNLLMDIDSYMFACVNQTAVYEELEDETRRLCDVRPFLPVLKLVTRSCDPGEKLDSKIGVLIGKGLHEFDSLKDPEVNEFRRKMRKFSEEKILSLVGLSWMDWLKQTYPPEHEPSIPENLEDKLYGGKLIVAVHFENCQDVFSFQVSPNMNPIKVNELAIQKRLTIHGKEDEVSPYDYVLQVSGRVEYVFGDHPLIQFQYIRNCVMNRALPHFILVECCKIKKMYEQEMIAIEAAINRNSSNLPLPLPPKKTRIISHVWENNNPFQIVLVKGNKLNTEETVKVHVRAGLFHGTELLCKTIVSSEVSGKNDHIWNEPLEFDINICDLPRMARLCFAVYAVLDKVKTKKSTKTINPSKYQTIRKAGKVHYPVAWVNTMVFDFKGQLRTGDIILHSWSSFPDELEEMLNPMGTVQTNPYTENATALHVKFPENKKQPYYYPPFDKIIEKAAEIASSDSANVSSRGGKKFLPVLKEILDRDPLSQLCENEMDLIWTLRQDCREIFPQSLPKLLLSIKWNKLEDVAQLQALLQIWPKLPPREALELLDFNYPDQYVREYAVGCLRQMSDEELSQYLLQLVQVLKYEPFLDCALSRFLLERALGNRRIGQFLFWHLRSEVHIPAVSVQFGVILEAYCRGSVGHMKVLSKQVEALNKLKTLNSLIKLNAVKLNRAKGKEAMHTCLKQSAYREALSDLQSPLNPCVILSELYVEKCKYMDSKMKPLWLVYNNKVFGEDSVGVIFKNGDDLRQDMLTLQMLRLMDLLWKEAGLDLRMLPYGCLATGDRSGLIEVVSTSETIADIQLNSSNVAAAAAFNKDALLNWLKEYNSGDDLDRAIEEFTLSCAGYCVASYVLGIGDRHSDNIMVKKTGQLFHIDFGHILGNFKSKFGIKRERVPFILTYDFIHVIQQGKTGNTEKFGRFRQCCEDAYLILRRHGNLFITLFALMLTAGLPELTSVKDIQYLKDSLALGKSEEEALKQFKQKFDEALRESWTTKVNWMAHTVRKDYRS

| EC50 [1] [nM] | IC50 [2] [nM] | SMILES |
| --- | --- | --- |
| 18.1 | 15.9 | Cc1c(Cl)cccc1Cn1c(C)nc2c(C(=O)O)cc(N3CCOCC3)nc21 |
| 153 | 41.4 | Cc1nc2c(C(=O)O)cc(N3CCOCC3)nc2n1Cc1cccc(Cl)c1Cl |
| 41 | 436 | Cc1c(Cn2c(C)nc3c(C(=O)O)cc(N4CCOCC4)nc32)cccc1C(F)(F)F |
